Where no end group is shown, it is not given here.
Legend:
[1] = Metabolic stability in mouse liver microsomes; conditions: NADPH, 37° C., 30 minutes
Description: (§4) Upon completion of the reaction, cold acetonitrile containing internal standard was added, and then deproteinization was carried out. The reactant was centrifuged at 4° C., 4000 rpm for 15 minutes, and the supernatant was analyzed by LC-MS/MS. The system was verified with buspirone, a reference material.

[2] = Metabolic stability in human liver microsomes; conditions: pH 7.4
Description: as §4

[3] = target: T1, recombinant HRF (Homo sapiens, UniProt P13693); experiment: Inhibition of IL-8 secretion by HRF in BEAS-2B cells; type: cell-based; conditions: FIG. 7; for inhibition of IL-8 secretion by HRF: 0.75 nM and 7.5 nM with 75 nM recombinant HRF, 24 hours
T1 sequence (P13693 1-172): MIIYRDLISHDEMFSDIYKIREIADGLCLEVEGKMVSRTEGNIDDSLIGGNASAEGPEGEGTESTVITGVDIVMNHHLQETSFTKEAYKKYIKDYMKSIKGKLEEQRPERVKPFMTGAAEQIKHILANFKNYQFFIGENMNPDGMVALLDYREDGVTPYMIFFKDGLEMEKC
Description: The PEG (5000)-dTBP2 prepared in Preparative Example 4, Example 1, and Example 2 was diluted with 1% penicillin streptomycin/DMEM for each concentration (0, 0.75 nM, 7.5 nM), incubated with 75 nM recombinant HRF at room temperature for 15 minutes, and then treated to BEAS-2B cells grown to about 70% on a 48 well plate. The cells were cultured in a 37° C., 5% CO2 incubator for 24 hours, and the supernatant was obtained. Then, the released IL-8 was quantified by enzyme immunosorbent detection (Biolegend). The IL-8 enzyme immunosorbent detection was performed according to the protocol of Biolegend Human IL-8 ELISA kit with pre coated plates (431508). 300 μl of wash buffer was added to each well of the plate pre-coated with the IL-8 antibody, and the plate was washed a total of 4 times. Then, 50 μl of the supernatant was added to each well of the plate and left at room temperature for 2 hours. After 2 hours, the supernatant in the plate was removed, and 300 μl of wash buffer was added to each well of the plate. The plate was washed a total of 4 times, and then 100 μl of a detection antibody solution was added to each well of the plate and left at room temperature for 1 hour. Thereafter, 300 μl of wash buffer was added to each well of the plate, and the plate was washed a total of 4 times. Then, 100 μl of Avidin-HRP A solution was added to each well of the plate and left at room temperature for 30 minutes. Finally, 300 μl of wash buffer was added to each well of the plate, and after washing the plate 5 times, 100 μl of substrate solution F was added to each well of the plate and left at room temperature in a dark room. 100 μl of a stop solution was additionally added to each well of the plate, and absorbance was measured at 450 nm and 570 nm. The wash buffer, detection antibody solution, avidin HRP A solution, substrate solution F, and stop solution were all used as reagents included in a kit (431508, Biolegend).

[4] = tested on: ovalbumin-specific IgE; experiment: Ovalbumin-specific IgE secretion in mouse plasma, ovalbumin-induced bronchial asthma and rhinitis mouse model; type: in vivo; conditions: plasma, 1 mg/kg IP, 8 times daily for 8 days
Description: (§1) A bronchial asthma and rhinitis animal model was prepared by the following method. An ovalbumin solution was prepared by dissolving ovalbumin in an aluminum hydroxide solution (1 mg/ml) 28 and 14 days before the start of inducing bronchial asthma and rhinitis, and 200 μl of the solution was intraperitoneally injected into each mouse for sensitization. After 14 days of final sensitization, 20 μl of saline/PBS (normal control; NC) or 20 μl of 10 mg/mL ovalbumin solution (positive control; PC) was instilled into the nasal cavity of each lightly anesthetized mouse 4 times every other day for 8 days to induce bronchial asthma and rhinitis.
Ovalbumin is an allergy-causing substance mainly contained in egg whites. […] After completion of the experiment, the mouse was anesthetized by injecting a mixture of zoletil (250 mg/kg) and rompun (50 mg/kg) intraperitoneally, and the chest was opened. 0.8 mL blood was collected by puncture of the heart with a 26 gauge 1 mL syringe coated with heparin. The collected blood was centrifuged at 4° C., 3000 rpm for 10 minutes to obtain plasma components. The amount of ovalbumin-specific IgE in the blood serum obtained through the above process was measured and quantified by enzyme immunosorbent detection method using mouse OVA specific IgE kit (Biolegend, USA).
(§2) Next, in order to confirm whether there is an effect of inhibiting ovalbumin-specific IgE secretion in plasma even when administered in a small number of times, the dTBP2 of Preparative Example 4 and Example 3 was administered to the mouse model of Example 4-1 through intraperitoneal injection once in 4 days for a total of 2 times for 8 days inducing bronchial asthma and rhinitis. The amount of ovalbumin-specific IgE secretion was measured and quantified by the enzyme immunosorbent detection method in the same manner.
(§3) In addition, the dTBP2 of Preparative Example 4 and Example 3 was administered to the mouse model of Example 4-1 through intraperitoneal injection once on the 1st day of 8 days inducing bronchial asthma and rhinitis. The amount of ovalbumin-specific IgE secretion was measured and quantified by the enzyme immunosorbent detection method in the same manner.
The amount of ovalbumin-specific IgE secretion was measured and quantified by the enzyme immunosorbent detection method in the same manner.

[5] = tested on: eosinophils in bronchoalveolar lavage fluid; experiment: Eosinophil increase in bronchoalveolar lavage fluid, ovalbumin-induced bronchial asthma and rhinitis mouse model; type: in vivo; conditions: 1 mg/kg IP, 8 times daily for 8 days, FIG. 9
Description: as §1
After anesthetizing the mouse by injecting a mixture of zoletil (250 mg/kg) and rompun (50 mg/kg) intraperitoneally, a 20-gauge catheter was inserted into the trachea by puncturing the trachea with a knife, and 0.6 mL of PBS at a time was injected-collected three times, and the collection rate was adjusted to 80%. The collected bronchoalveolar lavage fluid was centrifuged at 4° C., 3000 rpm for 10 minutes, and the cell precipitate was resuspended in 0.1 mL of PBS. 20 μL of the suspension was analyzed for the composition of blood cells using a fully automatic hematology analyzer (HEMAVET 950 FS, Drew Scientific, Inc.).

[6] = tested on: IL-5; experiment: IL-5 secretion in bronchoalveolar lavage fluid, ovalbumin-induced bronchial asthma and rhinitis mouse model; type: in vivo; conditions: 1 mg/kg IP
Description: as §1
After the end of the experiment, the amount of IL-5 in the supernatant obtained by centrifuging bronchoalveolar lavage fluid was measured and quantified by enzyme immunosorbent detection using mouse IL-5 ELISA kit (Biolegend, USA).
as §2, with “inhibiting IL-5” for “inhibiting ovalbumin-specific IgE”, “secretion” for “secretion in plasma”, “of IL-5” for “of ovalbumin-specific IgE secretion”
as §3, with “IL-5” for “ovalbumin-specific IgE secretion”
The amount of IL-5 was measured and quantified by the enzyme immunosorbent detection method in the same manner.

[7] = tested on: IL-13; experiment: IL-13 secretion in bronchoalveolar lavage fluid, ovalbumin-induced bronchial asthma and rhinitis mouse model; type: in vivo; conditions: 1 mg/kg IP, 8 times daily for 8 days, FIG. 18
Description: as §1
After the end of the experiment, the amount of IL-13 in the supernatant obtained by centrifuging bronchoalveolar lavage fluid was measured and quantified by enzyme immunosorbent detection using mouse IL-13 ELISA kit (R&D system, USA).
as §2, with “inhibiting IL-13” for “inhibiting ovalbumin-specific IgE”, “secretion” for “secretion in plasma”, “of IL-13” for “of ovalbumin-specific IgE secretion”
as §3, with “IL-13” for “ovalbumin-specific IgE secretion”
The amount of IL-13 was measured and quantified by the enzyme immunosorbent detection method in the same manner.

[8] = Pharmacokinetic analysis in ICR mice; type: in vivo; conditions: mouse, plasma, IV, 10 mg/kg
Description: The dTBP2 of Preparative Examples 4 and Example 3 was added to a solution prepared in DMSO:PEG400:DW=5:55:40, and this was administered at the concentration of 5 mL/kg. Blood samples were taken at 0.083, 0.25, 0.5, 1, 2, 4, and 8 hours post injection. The blood was centrifuged at 4° C., 3000 rpm for 10 minutes, to which cold acetonitrile containing internal standard was added in an amount 4 times the plasma component, and then deproteinization was carried out. After centrifugation again at 4° C., 13000 rpm for 10 minutes, the supernatant was collected and analyzed by Agilent 6460 LC-MS/MS. Pharmacokinetic analysis was performed with Phoenix WinNonlin (Pharsight ver 6.4, USA) using a non-compartmental analysis model.

[9] = tested on: IL-4; experiment: IL-4 secretion in bronchoalveolar lavage fluid, ovalbumin-induced bronchial asthma and rhinitis mouse model; type: in vivo; conditions: 1 mg/kg IP
Description: as §1
After the end of the experiment, the amount of IL-4 in the supernatant obtained by centrifuging bronchoalveolar lavage fluid was measured and quantified by enzyme immunosorbent detection using mouse IL-4 ELISA kit (Biolegend, USA).
as §2, with “inhibiting IL-4” for “inhibiting ovalbumin-specific IgE”, “secretion” for “secretion in plasma”, “of IL-4” for “of ovalbumin-specific IgE secretion”
as §3, with “IL-4” for “ovalbumin-specific IgE secretion”
The amount of IL-4 was measured and quantified by the enzyme immunosorbent detection method in the same manner.

O=C1CC2(CCCC2)CC(=O)N1CCCCN1CCN(c2ncccn2)CC1 [Buspirone, buspirone]
Mouse (%) remaining after reaction [1]: 0.10% | remaining at 0.5 h [2]: 6.15%

Example 1: dTBP2 (WYVYPSM) conjugated at the N-terminal with methoxy polyethylene glycol propionaldehyde (5 kDa) ({mPEG propionaldehyde 5 kDa}-WYVYPSM)
inhibition of IL-8 secretion by HRF [3]: effective | inhibitory effect on the IL-8 secretion by HRF, comparison among the tested peptides [3]: best

Example 2: dTBP2 (WYVYPSM) conjugated at the C-terminal with methoxy polyethylene glycol hydrazide (5 kDa) (WYVYPSM-{mPEG hydrazide 5 kDa})
inhibition of IL-8 secretion by HRF [3]: effective

Methoxy polyethylene glycol propionaldehyde (5000) [Preparative Example 1]
inhibition of IL-8 secretion by HRF [3]: effective

WYVYPSM [Preparative Example 4, WYVYPSM, reference compound]
inhibiting ovalbumin-specific IgE secretion in plasma (in words) [4]: very effective | reduction of ovalbumin-specific IgE secretion ([4]; FIG. 22): about 50% | reduction of increased eosinophils vs positive control [5]: about 40% | reduction of IL-5 secretion ([6]; 8 times daily for 8 days, FIG. 10): about 25% | IL-5 secretion inhibitory effect ([6]; once on the 5th day of 8 days, FIG. 13): weak | reduction of IL-13 secretion [7]: about 30% | AUC(0-inf) [8]: 30 ng·h/mL | AUC(0-t) [8]: 20 ng·h/mL | half-life ([8]; read-out: T1/2 (half life) (converted)): 1.91 h | Vd ([8]; read-out: Vss (steady-state volume of distribution)): 783 L/kg | reduction of IL-4 secretion ([9]; 8 times daily for 8 days, FIG. 14): about 50% | IL-4 secretion inhibitory effect ([9]; once on the 5th day of 8 days, FIG. 17): weak

From patent US20230058316A1, “PEGYLATED IGE-DEPENDENT HISTAMINE-RELEASING FACTOR (HRF)-BINDING PEPTIDE AND USE THEREOF” (EWHA UNIVERSITY - INDUSTRY COLLABORATION FOUNDATION, priority 2020, published 2023)
